Reference: US20230346827A1 (priority 2020, published 2023)

Tested on: Human Schwann cells
Assay: Gene expression array and pathway analysis, Schwann cells, LMW-DS 0.01 mg/ml 48 h
Assay type: cell-based
Conditions: for number of genes: abolished nutrient effect / number of genes: total / number of genes: enhanced response to nutrients / number of genes: new effect induced by LMW-DS / number of genes: not different from control / Activation z-score / Predicted activation state relative D2 control: Schwann cells; for Activation z-score / Predicted activation state relative D2 control: D2 LMW-DS treatment
Procedure: For each cell line, n=8 × 25 cm^2 culture flasks were set up. Two flasks were harvested for each cell type on the day of treatment (24 hours after seeding). This represents the Day0 time point. From the remaining flasks, three flasks were treated with Control Medium and three were treated with Culture Medium (CM) containing LMW-DS to give a final concentration of 0.01 mg/ml. Cells from the treated flasks were collected after 48 hours. Therefore the collected data represent (a) untreated cells (Day0 Controls and Day2 Controls) and (b) cells treated with LMW-DS (ILB®, Tikomed AB, Viken, Sweden, WO 2016/076780) for 48 hours (Day2 LMW-DS treated).
Schwann cells growth medium was prepared by adding 10% of fetal bovine serum (FBS) to high-glucose DMEM and pre-warmed to 37° C. Cells were thawed in a 37° C. water bath for no longer than 2 min.
Cells from 12 vials were each gently transferred to a tube containing 10 ml of high-glucose DMEM medium and centrifuged at 400 relative centrifugal field (RCF) for 10 min. Pellet was re-suspended in culture medium. The cells from the 12 vials were mixed and distributed equally into the previously coated 25 cm^2 flasks (n=8). Cells were incubated at 37° C. with 5% CO2. Cells were allowed to settle for 24 hours before LMW-DS treatment.
LMW-DS was provided at a stock concentration of 20 mg/ml and was kept in a temperature monitored refrigerator at 4° C. A fresh 100x LMW-DS stock (1.0 mg/ml) was prepared in sterile DMEM-F12. The concentrated drug stock was sterile filtered and added to the respective culture media (19.6 ml CM and 0.4 ml LMW-DS stock solution). The Control was made using 19.6 ml CM and 0.4 ml of DMEM-F12. LMW-DS and CM were added to the respective flasks (5 ml each) to reach the 0.01 mg/ml concentration of LMW-DS in each dish with a total of 10 ml CM each.
CM was aspirated into a clean and labelled 15 ml Falcon tube. The flasks (without culture medium) were placed into the -80° C. freezer for 30 minutes. The CM in the Falcon tubes was spun at 3000 x g for 5 minutes. Supernatant was removed and the small pellet was re-suspended in 2.5 ml Trizol:Water (4:1) solution at room temperature (RT, ~22° C.).
Two aliquots of 1 ml lysate were removed from each sample and 200 µl of chloroform was added to each (0.2 ml of chloroform per 1 ml of TRIzol Reagent used during the cell lysis step) and the tube was shaken vigorously. Samples were stored at RT for 2-3 minutes and subsequently centrifuged at 12,000 x g for 15 minutes at 4° C.
The RNA was precipitated from the aqueous phase by adding an equal amount of 100% ethanol. The precipitated RNA was fixed onto a Spin Cartridge, washed twice and dried. The RNA was eluted in 50 µl warm RNase-Free Water. The amount and quality of the purified RNA was measured by Nanodrop. The RNA was stored at -80° C. before transfer to Source Bioscience for Array analysis.
The expression data were downloaded into separate files for each cell line. The ‘Background corrected’ expression is the data from the “gProcessedSignal” of the arrays that is the result of the background signal extracted from the actual signal of the relevant probe. This is the most often used variable in array analysis. The background corrected signal was log2 transformed for all samples for statistical analysis. To reduce the false discovery rate in the samples, the signals that were below ‘expression level’ were removed. The ‘below expression’ level was set at 5 for the log2 transformed expression values.
Based on the expression pattern of the Control probes on each array it was decided to carry out Median Centering for all arrays before analysis to reduce the variability of the results. […]

[1] = pathway analysis of gene expression
[2] = upstream regulator HGF (from line above)

sodium salt of dextran sulfate [LMW-DS]
attachment-related molecules differentially expressed: 17 | number of differentially expressed genes (D0 control to D2 LMW-DS treated): 1244 | number of differentially expressed genes (D2 control to D2 LMW-DS treated): 700 | number of genes: abolished nutrient effect (no effect): 21 | number of genes: total (no effect): 21 | number of genes: abolished nutrient effect (significant downregulation): 1 | number of genes: enhanced response to nutrients (significant downregulation): 122 | number of genes: new effect induced by LMW-DS (significant downregulation): 352 | number of genes: not different from control (significant downregulation): 42 | number of genes: total (significant downregulation): 517 | number of genes: abolished nutrient effect (significant upregulation): 13 | number of genes: enhanced response to nutrients (significant upregulation): 441 | number of genes: new effect induced by LMW-DS (significant upregulation): 74 | number of genes: not different from control (significant upregulation): 373 | number of genes: total (significant upregulation): 901 | number of genes: abolished nutrient effect (total): 35 | number of genes: enhanced response to nutrients (total): 563 | number of genes: new effect induced by LMW-DS (total): 426 | number of genes: not different from control (total): 415 | number of genes: total (total): 1439 | TGFβ-induced effect in adhesion of immune cells, activation and aggregation of cells, fibrosis, self-activation of TGFβ (molecular network analysis): totally abolished | Complex III (cytochrome bc1) [1]: inhibited | activity and/or levels of glutamate transporters (SLC1A2/3) [1]: increased | genes altered in Control cultures with no changes in LMW-DS treated cultures (two days): 21 | genes downregulated by growth factors, downregulation stronger with LMW-DS (two days): 122 | genes downregulated in control cultures, upregulated in LMW-DS treated cultures (two days): 13 | genes increased in control cultures, downregulated in LMW-DS treated cultures (two days): 1 | genes upregulated in Control cultures, upregulation stronger with LMW-DS (two days): 441 | Activation z-score (upstream regulator ANGPT2): 1.283 | Predicted activation state relative D2 control (upstream regulator ANGPT2): Activated | Activation z-score (upstream regulator BMP2): 1.395 | Predicted activation state relative D2 control (upstream regulator BMP2): Activated | Activation z-score (upstream regulator BMP4): 0.927 | Predicted activation state relative D2 control (upstream regulator BMP4): Activated | Activation z-score (upstream regulator BMP7): 1.86 | Predicted activation state relative D2 control (upstream regulator BMP7): Activated | Activation z-score (upstream regulator EGF): 2.059 | Predicted activation state relative D2 control (upstream regulator EGF): Activated | Activation z-score (upstream regulator FGF2): 2.37 | Predicted activation state relative D2 control (upstream regulator FGF2): Activated | Activation z-score (upstream regulator GDF2): 2.561 | Predicted activation state relative D2 control (upstream regulator GDF2): Activated | Activation z-score [2]: 1.432 | Predicted activation state relative D2 control [2]: Activated | Activation z-score (upstream regulator IGF1): 1.332 | Predicted activation state relative D2 control (upstream regulator IGF1): Activated | Activation z-score (upstream regulator NRG1): 1.768 | Predicted activation state relative D2 control (upstream regulator NRG1): Activated | Activation z-score (upstream regulator NRTN): 0.958 | Predicted activation state relative D2 control (upstream regulator NRTN): Activated | Activation z-score (upstream regulator PGF): 0.254 | Predicted activation state relative D2 control (upstream regulator PGF): Activated | Activation z-score (upstream regulator TGFβ1): 1.05 | Predicted activation state relative D2 control (upstream regulator TGFβ1): Less inhibited | Activation z-score (upstream regulator VEGFA): 3.4 | Predicted activation state relative D2 control (upstream regulator VEGFA): Activated | Activation z-score (upstream regulator WISP2): -0.896 | Predicted activation state relative D2 control (upstream regulator WISP2): Less inhibited
